Measured values taken from patent publication US5525626A (priority 1989, dated 1996).

Legend:
Test in all cases: 3H-thymidine assay
Type in all cases: cell-based
[1] = test system: Tp 242 MG glioblastoma cells; details: Homo sapiens
[2] = test system: HCV cells
[3] = test system: CAKI-1 cells; details: Homo sapiens, CAKI-1
How it was run: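 CAKI-1 human tumor cells were seeded at 10^4 cells per well in 24-well plates and grown about 48 hours until half-confluent. The medium was then swapped for one containing the test substance. Cells were washed twice in ice-cold PBS, and macromolecular 3H-radioactivity was precipitated with 5% trichloroacetic acid for one hour at 4° C.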

[4] = test system: MCF-7 breast cancer cells; details: Homo sapiens, MCF7
How it was run: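 Antiproliferative activity against human MCF-7 breast cancer cells was measured by 3H-thymidine incorporation. Cells (10^4 per well) were seeded in 24-well plates, grown about 48 hours to half-confluence, then given medium containing the test substance. After two ice-cold PBS washes, high-molecular-weight 3H-radioactivity was precipitated with 5% trichloroacetic acid for one hour at 4° C, solubilized in 0.3M NaOH and counted; incorporation was compared with untreated cells.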

[5] = test system: K-562 leukemic cells; details: Homo sapiens, K562
How it was run: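 Antiproliferative activity against human K562 leukemia cells was measured by 3H-thymidine incorporation. Cells were seeded at 10^4 per well in 24-well plates and grown about 48 hours to half-confluence, then given medium containing the active substance. After two ice-cold PBS washes, macromolecular 3H was precipitated with 5% trichloroacetic acid for one hour at 4° C, dissolved in 0.3M NaOH and counted.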

[6] = test system: At T 20; details: Mus musculus, AtT20
How it was run: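 Proliferation of AtT20 tumor cells was assessed by 3H-thymidine incorporation. 10^4 cells per well were seeded in 24-well plates and grown about 48 hours to half-confluence, then given medium with the active substance. Cells were washed twice in ice-cold PBS, high-molecular-weight 3H-radioactivity was precipitated with 5% trichloroacetic acid for one hour at 4° C, solubilized in 0.3M NaOH and counted.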

[7] = test system: Tp 410 N neuroblastoma cells; details: Homo sapiens, Neuroblastoma cell
[8] = test system: Z-R-75-1 breast cancer cells; details: Homo sapiens, ZR-75-1
[9] = test system: CAKI-2 cells; details: Homo sapiens, CAKI-2
How it was run: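 Cells were seeded in 24-well plates at 10^4 cells per well and grown about 48 hours until half-confluent. The medium was then replaced with medium containing the test substance. After two washes in ice-cold PBS, acid-insoluble 3H label was precipitated with 5% trichloroacetic acid for one hour at 4° C. Label was dissolved in 0.3M NaOH and counted, and thymidine incorporation was compared with untreated cells.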

[10] = 1 μM/ml, read-out: 3H-thymidine insertion (%) of control
[11] = 2 μM/ml, read-out: 3H-thymidine insertion (%) of control
[12] = 4 μM/ml, read-out: 3H-thymidine insertion (%) of control
[13] = 8 μM/ml, read-out: 3H-thymidine insertion (%) of control
[14] = 16 μM/ml, read-out: 3H-thymidine insertion (%) of control
[15] = 25 μM/ml, read-out: 3H-thymidine insertion (%) of control
[16] = 50 μM/ml, read-out: 3H-thymidine insertion (%) of control
[17] = 100 μM/ml, read-out: 3H-thymidine insertion (%) of control
[18] = 250 μM/ml, read-out: 3H-thymidine insertion (%) of control
[19] = 500 μM/ml, read-out: 3H-thymidine insertion (%) of control
[20] = Table 4, read-out: active substance concentration at which 3H-thymidine insertion was 50% inhibited
[21] = 1 μM/ml, read-out: 3H-thymidine tracer (%) of control
[22] = 2 μM/ml, read-out: 3H-thymidine tracer (%) of control
[23] = 4 μM/ml, read-out: 3H-thymidine tracer (%) of control
[24] = 8 μM/ml, read-out: 3H-thymidine tracer (%) of control
[25] = 16 μM/ml, read-out: 3H-thymidine tracer (%) of control
[26] = 25 μM/ml, read-out: 3H-thymidine tracer (%) of control
[27] = 50 μM/ml, read-out: 3H-thymidine tracer (%) of control
[28] = 250 μM/ml, read-out: 3H-thymidine tracer (%) of control
[29] = 500 μM/ml, read-out: 3H-thymidine tracer (%) of control
[30] = Table 4, *: maximum usable dosage, no 50% inhibition, read-out: active substance concentration at which 3H-thymidine insertion was 50% inhibited
[31] = 100 μM/ml, read-out: 3H-thymidine tracer (%) of control
[32] = 150 μM/ml, read-out: 3H-thymidine tracer (%) of control

`COc1cc2ccc(=O)oc2cc1O` [Scopoletin, 6-methoxy-7-hydroxy-1,2-benzopyrone] gave an activity at 1 µM [1, 10] of 99%, an activity at 2 µM [1, 11] of 93% and an activity at 4 µM [1, 12] of 85%. It also gave an activity at 8 µM [1, 13] of 87%, an activity at 16 µM [1, 14] of 84% and an activity at 25 µM [1, 15] of 79%. The activity at 50 µM [1, 16] was 74%, the activity at 100 µM [1, 17] was 61% and the activity at 250 µM [1, 18] was 52%. The activity at 500 µM [1, 19] was 48%, the IC50 [1, 20] was 500 µM and the activity at 1 µM [2, 21] was 97%. It also gave an activity at 2 µM [2, 22] of 90%, an activity at 4 µM [2, 23] of 86% and an activity at 8 µM [2, 24] of 81%. It also gave an activity at 16 µM [2, 25] of 77%, an activity at 25 µM [2, 26] of 69% and an activity at 50 µM [2, 27] of 65%. The activity at 250 µM [2, 28] was 60%, the activity at 500 µM [2, 29] was 57% and the IC50 [2, 30] was greater than 500 µM. For the same compound, the activity at 1 µM [3, 21] was 100%, the activity at 2 µM [3, 22] was 98% and the activity at 4 µM [3, 23] was 87%. The activity at 8 µM [3, 24] was 81%, the activity at 16 µM [3, 25] was 80% and the activity at 25 µM [3, 26] was 73%. For the same compound, the activity at 50 µM [3, 27] was 69%, the activity at 100 µM [3, 31] was 67% and the activity at 150 µM [3, 32] was 62%. For the same compound, the activity at 500 µM [3, 29] was 55%, the IC50 [3, 30] was greater than 500 µM and the activity at 1 µM [4, 21] was 100%. It also gave an activity at 2 µM [4, 22] of 97%, an activity at 4 µM [4, 23] of 94% and an activity at 8 µM [4, 24] of 86%. The activity at 16 µM [4, 25] was 81%, the activity at 25 µM [4, 26] was 76% and the activity at 50 µM [4, 27] was 73%. The activity at 100 µM [4, 31] was 69%, the activity at 250 µM [4, 28] was 62% and the activity at 500 µM [4, 29] was 54%. The IC50 [4, 30] was greater than 500 µM, the activity at 1 µM [5, 21] was 100% and the activity at 2 µM [5, 22] was 97%. The activity at 4 µM [5, 23] was 90%, the activity at 8 µM [5, 24] was 85% and the activity at 16 µM [5, 25] was 82%. The activity at 25 µM [5, 26] was 71%, the activity at 50 µM [5, 27] was 66% and the activity at 100 µM [5, 31] was 52%. It also gave an activity at 250 µM [5, 28] of 47%, an activity at 500 µM [5, 29] of 44% and an IC50 [5, 20] of 175 µM. It also gave an activity at 1 µM [6, 21] of 98%, an activity at 2 µM [6, 22] of 94% and an activity at 4 µM [6, 23] of 89%. The activity at 8 µM [6, 24] was 84%, the activity at 16 µM [6, 25] was 76% and the activity at 25 µM [6, 26] was 68%. The activity at 50 µM [6, 27] was 62%, the activity at 100 µM [6, 31] was 57% and the activity at 250 µM [6, 28] was 49%. It also gave an activity at 500 µM [6, 29] of 43%, an IC50 [6, 20] of 250 µM and an activity at 1 µM [7, 10] of 100%. It also gave an activity at 2 µM [7, 11] of 98%, an activity at 4 µM [7, 12] of 95% and an activity at 8 µM [7, 13] of 87%. It also gave an activity at 16 µM [7, 14] of 82%, an activity at 25 µM [7, 15] of 74% and an activity at 50 µM [7, 16] of 71%. The activity at 100 µM [7, 17] was 65%, the activity at 250 µM [7, 18] was 62% and the activity at 500 µM [7, 19] was 54%. It also gave an IC50 [7, 20] of 500 µM, an activity at 1 µM [8, 21] of 98% and an activity at 2 µM [8, 22] of 96%. The activity at 4 µM [8, 23] was 91%, the activity at 8 µM [8, 24] was 83% and the activity at 16 µM [8, 25] was 79%. For the same compound, the activity at 25 µM [8, 26] was 72%, the activity at 50 µM [8, 27] was 64% and the activity at 100 µM [8, 31] was 57%. For the same compound, the activity at 250 µM [8, 28] was 55%, the activity at 500 µM [8, 29] was 50% and the IC50 [8, 30] was greater than 500 µM. It also gave an activity at 1 µM [9, 21] of 99%, an activity at 2 µM [9, 22] of 96% and an activity at 4 µM [9, 23] of 84%. For the same compound, the activity at 8 µM [9, 24] was 80%, the activity at 16 µM [9, 25] was 76% and the activity at 25 µM [9, 26] was 71%. For the same compound, the activity at 50 µM [9, 27] was 66%, the activity at 100 µM [9, 31] was 61% and the activity at 150 µM [9, 32] was 59%. For the same compound, the activity at 500 µM [9, 29] was 53% and the IC50 [9, 30] was greater than 500 µM.
